Tests used:
Escherichia coli = assay: Antibacterial activity against Escherichia coli ATCC 25922 after 24 hrs by broth microdilution method; type: functional; settings: ATCC 25922, 24 h
NHDF = assay: Antiproliferative activity against NHDF at 30 uM after 72 hrs by MTT assay relative to control; type: cell-based; settings: human
Klebsiella pneumoniae = assay: Antibacterial activity against Klebsiella pneumoniae ATCC 13883 after 24 hrs by broth microdilution method; type: functional; settings: ATCC 13883, 24 h
Pseudomonas aeruginosa = assay: Antibacterial activity against Pseudomonas aeruginosa ATCC 27853 after 24 hrs by broth microdilution method; type: functional; settings: ATCC 27853, 24 h
Salmonella typhimurium = assay: Antibacterial activity against Salmonella typhimurium ATCC 13311 after 24 hrs by broth microdilution method; type: functional, Salmonella enterica subsp. enterica serovar Typhimurium; settings: Salmonella enterica, ATCC 13311, 24 h
Staphylococcus aureus = assay: Antibacterial activity against Staphylococcus aureus ATCC 25923 after 24 hrs by broth microdilution method; type: functional; settings: ATCC 25923, 24 h
Acinetobacter baumannii = assay: Antibacterial activity against Acinetobacter baumannii LMG 1025 after 24 hrs by broth microdilution method; type: functional; settings: LMG 1025, 24 h
MCF7 = assay: Antiproliferative activity against human MCF7 cells at 30 uM after 72 hrs by MTT assay relative to control; type: functional
[1] = Antioxidant activity assessed as DPPH radical scavenging activity at 30 uM after 60 mins by spectrophotometric method relative to control; type: functional
[2] = Antioxidant activity assessed as DPPH radical scavenging activity at 30 uM after 20 mins by spectrophotometric method relative to control; type: functional
Bacillus cereus = assay: Antibacterial activity against Bacillus cereus ATCC 1178 after 24 hrs by broth microdilution method; type: functional; settings: ATCC 1178, 24 h

SMILES | MIC (Escherichia coli) [µM] | Activity (NHDF) [%] | MIC (Klebsiella pneumoniae) [µM] | MIC (Pseudomonas aeruginosa) [µM] | MIC (Salmonella typhimurium) [µM] | MIC (Staphylococcus aureus) [µM] | MIC (Acinetobacter baumannii) [µM] | Activity (MCF7) [%] | Activity [1] [%] | Activity [2] [%] | MIC (Bacillus cereus) [µM]
CC(=O)C1C(=O)N(c2ccccc2)C(=S)N(c2ccccc2)C1=O | > 200 | 89.63 | > 200 | > 200 | > 200 | > 200 | > 200 | 75.32 | -7.43 | -8.55 | > 200
NC(=O)NC=C1C(=O)NC(=O)NC1=O | > 200 | 78.89 | > 200 | > 200 | > 200 | > 200 | > 200 | 55.71 | -5.32 | -5.19 | > 200
CC(NNc1ccc([N+](=O)[O-])cc1[N+](=O)[O-])=C1C(=O)N(C)C(=O)N(C)C1=O | > 200 | 73.63 | > 200 | > 200 | > 200 | > 200 | > 200 | 69.95 | 26.7 | 28 | > 200
NC(=S)NC=C1C(=O)N(c2ccccc2)C(=S)N(c2ccccc2)C1=O | > 200 | 95.17 | > 200 | > 200 | > 200 | > 200 | > 200 | 90.04 | 32 | 23.1 | > 200
O=C1NC(=S)NC(=O)C1=Cc1ccccc1[N+](=O)[O-] | > 200 | 81.31 | > 200 | > 200 | > 200 | > 200 | > 200 | 56.35 | -0.23 | -2.2 | > 200
CN1C(=O)C(=Cc2ccccc2[N+](=O)[O-])C(=O)N(C)C1=O | > 200 | 79.11 | > 200 | > 200 | > 200 | > 200 | > 200 | 54.64 | -1.77 | -0.8 | > 200
COc1ccc(C=C2C(=O)NC(=O)NC2=O)cc1 | > 200 | 71.59 | > 200 | > 200 | > 200 | > 200 | > 200 | 78.75 | 2.63 | -0.97 | > 200
CC(NN)=C1C(=O)N(c2ccccc2)C(=S)N(c2ccccc2)C1=O | > 200 | 86.68 | > 200 | > 200 | > 200 | > 200 | > 200 | 99.93 | 41.9 | 31.3 | > 200
NC(=O)NC=C1C(=O)NC(=S)NC1=O | > 200 | 74.57 | > 200 | > 200 | > 200 | > 200 | > 200 | 104.66 | 5.6 | 5.26 | > 200
CN1C(=O)C(=CNc2cc([N+](=O)[O-])ccc2Cl)C(=O)N(C)C1=O | > 200 | 66.98 | > 200 | > 200 | > 200 | > 200 | > 200 | 50.07 | 0 | -0.82 | > 200
O=C1NC(=S)NC(=O)C1=CNc1ccccc1C(=O)O | > 200 | 79.11 | > 200 | > 200 | > 200 | > 200 | > 200 | 42.53 | -0.57 | -0.56 | > 200
Oc1ncnc2[nH]ncc12 [ALLOPURINOL] |  |  |  |  |  |  |  |  | -5.41 | -6.02 | 

Reference: ChEMBL document CHEMBL4138236, “Trisubstituted barbiturates and thiobarbiturates: Synthesis and biological evaluation as xanthine oxidase inhibitors, antioxidants, antibacterial and anti-proliferative agents” (Eur J Med Chem, 2018)
